Test results from PubChem BioAssay AID2401 (Southern Research Specialized Biocontainment Screening …, 2010).

The molecules below were run on S. Typhimurium GFP reporter counter-screen, fluorescence, 4 h (assay: S. Typhimurium nonspecific reporter signal inhibition – Salmonella Typhimurium, GFP fluorescence, counter-screen for PhoP regulon inhibitor project, dose response (AID 2401);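 further: S. typhimurium with Mg-insensitive nmpC-GFP reporter grown at 10 µM Mg2+; drop in reporter fluorescence reflects general culture growth inhibition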).
In the case of `NC1=NC[C@H](Cc2ccccc2)N1CCCCC1CCCCC1`, the IC50 is reported as 45.9 µM.
Work on `CCCCCCCNC(=O)C1(CC2CC(c3ccc(Cl)cc3)=NO2)CCNCC1` (configuration not stated) yielded an IC50 of 42.5 µM.
In the case of `CCCCCc1ccc(OCCOCCn2c[n+](C)c3ccccc32)c(CCCCC)c1`, the IC50 is reported as 63.2 µM.
Molecule `Oc1c(CN2CCCCC2)cc(COCc2ccccc2)c2cccnc12` has an IC50 of 80.5 µM.
In the case of `COc1cccc(Nc2nc(NCC3CCCO3)c3ccccc3n2)c1` (configuration not stated), the IC50 is reported as 87.5 µM.
With `CCn1cc(C(=O)O)c(=O)c2cc3c(cc21)OCO3` the IC50 was 80.6 µM.
Work on `CCCC(=O)NC(c1ccc(C)cc1)c1ccc2cccnc2c1O` (configuration not stated) yielded an IC50 of 100 µM.
For `CNc1nc(NCc2ccccc2)c2ccccc2n1`, the IC50 was 79.3 µM.
In the case of `C/C(CC(=O)Nc1ccc(Cl)c(C(F)(F)F)c1)=N\NC(=O)c1ccccc1O`, the IC50 is reported as 117 µM.
For `Cc1cc(SCC(=O)N/N=C/c2ccc(O)c(O)c2O)c(C)cc1Br`, the IC50 was 30.6 µM.
`CS(=O)(=O)c1ccc([C@@H](O)[C@@H](CO)NC(=O)C(Cl)Cl)cc1` gave an IC50 of 86.2 µM.
For `Oc1c(CN2CCN(c3ccc(F)cc3)CC2)cc(Cl)c2cccnc12`, the IC50 was 19.8 µM.
Molecule `Oc1c(CN2CCOCC2)cc(COCc2ccccc2)c2cccnc12` has an IC50 of 69.5 µM.
Molecule `O=C(c1ccccc1)c1c2c(cc3sc4ccccc4[n+]13)-c1cccc3cccc-2c13` has an IC50 of 82.2 µM.
`O=C(Oc1c(Cl)cc(Cl)c2cccnc12)c1ccco1` gave an IC50 of 21.6 µM.
With `C=CC#CC[N+]1(CC#Cc2ccccc2)CCOCC1` the IC50 was 34.3 µM.
`Cc1ccccc1OCc1n(CC(=O)OC2CC(C)CCC2C(C)C)c2ccccc2[n+]1C` (configuration not stated) gave an IC50 of 65.6 µM.
`CCn1cc(C(=O)O)c(=O)c2cc(F)c(N3CCN(C(=S)NC(=O)c4ccccc4C)CC3)cc21` gave an IC50 of 27.6 µM.
With `C(=N\Nc1ccccn1)/c1cccnc1` the IC50 was 21.5 µM.
`CN(C)c1ccc(O)c2c1CC1CC3C(N(C)C)C(=O)C(C(N)=O)=C(O)[C@@]3(O)C(=O)C1=C2O` (some centres not stated) gave an IC50 of 3.97 µM.
With `C=CCc1cccc(C2Nc3ccccc3C(=O)N2O)c1O` (configuration not stated) the IC50 was 80.9 µM.
With `CCN(CC)S(=O)(=O)c1cccc(C(=O)N/N=C/c2ccc(O)c(O)c2O)c1` the IC50 was 98.6 µM.
`COc1cccc(C2Nc3ccccc3C(=O)N2O)c1O` (configuration not stated) gave an IC50 of 138 µM.
With `NC(N)=N/N=C/c1ccc(OCc2ccc(Cl)cc2)cc1` the IC50 was 35.7 µM.
In the case of `Cc1conc1NC(c1cccs1)c1ccc2cccnc2c1O` (configuration not stated), the IC50 is reported as 25.1 µM.
For `CCn1cc(C(=O)NCCCN(C)C)c(=O)c2cc(F)c(N3CCN(C)CC3)cc21`, the IC50 was 86.9 µM.
For `CO[C@H]1/C=C/O[C@@]2(C)Oc3c(C)c(O)c4c(O)c(c(C=NN5CCN(C)CC5)c(O)c4c3C2=O)NC(=O)/C(C)=C\C=C\[C@H](C)[C@H](O)[C@@H](C)[C@@H](O)[C@@H](C)[C@H](OC(C)=O)[C@@H]1C`, the IC50 was 6.41 µM.
`O=C(O)C1Nc2c(O)cccc2C2C=CCC12` (configuration not stated) gave an IC50 of 86.9 µM.
In the case of `CNC[C@H](CC1CCCCC1)NC[C@H](Cc1ccccc1)NCCC12CC3CC(CC(C3)C1)C2`, the IC50 is reported as 16.1 µM.
Molecule `Cc1ccc(C(c2cc(Cl)c3cccnc3c2O)N2CCN(C)CC2)cc1` (configuration not stated) has an IC50 of 33.5 µM.
With `O=S1(=O)N=C(N/N=C/c2ccccn2)c2ccccc21` the IC50 was 19.3 µM.
For `CC(C)C(=O)NC(c1cccc([N+](=O)[O-])c1)c1ccc2cccnc2c1O` (configuration not stated), the IC50 was 51.7 µM.
`O=C(Nc1nc(-c2ccccn2)cs1)c1ccc(Cl)s1` was tested, and the IC50 was 28.6 µM.
`COc1c(F)c(F)cc2c(=O)c(C(=O)O)cn(C3CC3)c12` was tested, and the IC50 was 85.6 µM.
For `Cc1ccc(C(C[N+](=O)[O-])c2c(C)cc3ccccn23)cc1` (configuration not stated), the IC50 was 65 µM.
In the case of `O=C(N/N=C/c1cccc([N+](=O)[O-])c1O)c1cccs1`, the IC50 is reported as 16.8 µM.
`Nc1nonc1-n1nnc(C(=O)N/N=C/c2cc(Br)ccc2O)c1CSC1=NCCS1` was tested, and the IC50 was 19.3 µM.
Molecule `CN(C)CCCNc1cc(C(C)(C)C)nc2c(-c3ccccc3)cnn12` has an IC50 of 53.6 µM.
`CCCCCCCCn1c2c(c(=N)c3c1CCC3)CCCC2` was tested, and the IC50 was 70.9 µM.
`Cc1ccc(S(=O)(=O)/N=C2/C=C(Sc3ncn[nH]3)C(=O)c3ccccc32)c(C)c1` showed an IC50 of 149 µM.
`O=C(Nc1cccc(N=Cc2cc(Br)cc(Br)c2O)c1)c1ccco1` gave an IC50 of 104 µM.
With `CCn1cc(C(=O)O)c(=O)c2cc(F)c(N3CCN(C(=S)NC(=O)c4cccc(C)c4)CC3)cc21` the IC50 was 34.7 µM.
`O=C(N/N=C/c1ccc(O)cc1O)/C(=C/c1ccccc1)CCO` showed an IC50 of 124 µM.
Molecule `CCn1cc(C(=O)O)c(=O)c2cc(F)c(N3CCN(C(=S)NC(=O)c4c(OC)cccc4OC)CC3)cc21` has an IC50 of 54.2 µM.
In the case of `C=C1c2cccc(O)c2C(O)=C2C(=O)[C@]3(O)C(O)=C(C(N)=O)C(=O)[C@@H](N(C)C)[C@@H]3[C@@H](O)[C@H]12`, the IC50 is reported as 0.67 µM.
`Cc1ccc(/C=C/C(=O)c2ccccc(=O)c2O)cc1C` showed an IC50 of 25 µM.
`O=c1cc2oc3cc(O)c(O)cc3c(-c3ccccc3[N+](=O)[O-])c-2cc1O` gave an IC50 of 28.5 µM.
`CCCC(=O)NC(c1cccs1)c1cc([N+](=O)[O-])c2cccnc2c1O` (configuration not stated) showed an IC50 of 25.8 µM.
`CC(C(=O)c1ccc(-c2ccccc2)cc1)[n+]1cccc(NC(=O)c2ccccc2)c1` (configuration not stated) showed an IC50 of 76.6 µM.
`COc1c(N2CCN(C(=S)NCc3ccccc3)C(C)C2)c(F)cc2c(=O)c(C(=O)O)cn(C3CC3)c12` (configuration not stated) was tested, and the IC50 was 90.4 µM.
`COc1ccc(C(C[N+](=O)[O-])c2c(-c3ccccc3)cc3ccccn23)cc1` (configuration not stated) was tested, and the IC50 was 29.9 µM.
`ON=C1/C(=N\O)CC2(C/C1=N/O)OCCO2` showed an IC50 of 98.3 µM.
In the case of `CC1CCCC(C)N1/N=C/c1c[nH]c2ccc(Br)cc12` (configuration not stated), the IC50 is reported as 88.9 µM.
`CCCCCCCCCCCCCCCC[n+]1ccc(/C=N/O)cc1` was tested, and the IC50 was 28.7 µM.
With `C/C(=C\C(=O)OCCCCCCCCC(=O)O)C[C@@H]1OC[C@H](C[C@@H]2O[C@H]2[C@@H](C)[C@H](C)O)[C@@H](O)[C@H]1O` the IC50 was 9.67 µM.
`O=C1OCC(CO)(CO)N=C1NNc1ccc(Cl)c(Cl)c1` showed an IC50 of 109 µM.
`COc1ccc(/C=N/Nc2cc(C)nc3ccccc23)cc1` showed an IC50 of 51.7 µM.
Molecule `O=C(N/N=C/c1cc(O)ccc1Br)c1cccnc1` has an IC50 of 25.4 µM.
`O=[N+]([O-])c1cc(Cl)c(O)c2ncccc12` showed an IC50 of 5 µM.
With `O=C(NCCNc1ccc([N+](=O)[O-])cc1C(F)(F)F)c1cccc(F)c1` the IC50 was 106 µM.
`Oc1ccc(CNc2ccccc2F)c2cccnc12` showed an IC50 of 45.7 µM.
`CCn1cc(C(=O)NCCO)c(=O)c2cc(F)c(N3CCN(C)CC3)cc21` showed an IC50 of 42.8 µM.
`CO[C@@]1(NC(=O)C2SC(=C(C(N)=O)C(=O)O)S2)C(=O)N2C(C(=O)O)=C(CSc3nnnn3C)CS[C@@H]21` (some centres not stated) gave an IC50 of 26.9 µM.
`CSc1ccc2c(c1)C(N1CCN(C)CC1)Cc1ccccc1S2` (configuration not stated) gave an IC50 of 87.2 µM.
With `Cc1ccccc1NC(=O)CCC(=O)N/N=C/c1cc([N+](=O)[O-])ccc1O` the IC50 was 48.6 µM.
Molecule `CCN1/C(=C/C=C/C=C/c2sc3ccccc3[n+]2CC)Sc2ccccc21` has an IC50 of 17.8 µM.
`Cc1cccc(Nc2nc(NCc3ccco3)c3ccccc3n2)c1` gave an IC50 of 54.6 µM.
Molecule `N#CC1=C(S)N(c2ccccc2)C(c2ccc(-c3ccccc3Cl)o2)NC1=O` (configuration not stated) has an IC50 of 144 µM.
`COC(=O)c1c(NC(=O)c2ccc([N+](=O)[O-])o2)sc2c1CCN(C(C)C)C2` gave an IC50 of 69.3 µM.
`CCOC(=O)Cc1csc(NC(=O)NC2(C(F)(F)F)Oc3cc(Cl)c(Cl)cc3O2)n1` showed an IC50 of 74.6 µM.
In the case of `Cc1ccc(NC(=O)NCC2CCN(Cc3cccc(Cl)c3)CC2)cc1Cl`, the IC50 is reported as 70.2 µM.
`C/C(=N\N=C(N)N)c1ccc(Cl)c(Cl)c1` was tested, and the IC50 was 94.2 µM.
For `CN(C)CCCN(C(=O)CCc1ccccc1)c1nc2ccc(Cl)cc2s1`, the IC50 was 39 µM.
In the case of `Cc1nc2c(=O)n(C)c(=O)n(C)c2nc1Cl`, the IC50 is reported as 106 µM.
Work on `C=CC1=C(C(=O)O)N2C(=O)[C@@H](NC(=O)/C(=N/OCC(=O)O)c3csc(N)n3)[C@H]2SC1` yielded an IC50 of 30.3 µM.
With `CC1CCc2c(N3CCC(O)CC3)c(F)cc3c(=O)c(C(=O)O)cn1c23` (configuration not stated) the IC50 was 15.3 µM.
Molecule `Nc1nc(N2CCN(C/C=C/c3ccccc3)CC2)nc2ccccc12` has an IC50 of 107 µM.
